Target: T1, GPR158 (Homo sapiens, UniProt Q5T848)
T1 construct: expressed in transfected cells; host or cells: HEK293T/17
T1 sequence (Q5T848 24-1215): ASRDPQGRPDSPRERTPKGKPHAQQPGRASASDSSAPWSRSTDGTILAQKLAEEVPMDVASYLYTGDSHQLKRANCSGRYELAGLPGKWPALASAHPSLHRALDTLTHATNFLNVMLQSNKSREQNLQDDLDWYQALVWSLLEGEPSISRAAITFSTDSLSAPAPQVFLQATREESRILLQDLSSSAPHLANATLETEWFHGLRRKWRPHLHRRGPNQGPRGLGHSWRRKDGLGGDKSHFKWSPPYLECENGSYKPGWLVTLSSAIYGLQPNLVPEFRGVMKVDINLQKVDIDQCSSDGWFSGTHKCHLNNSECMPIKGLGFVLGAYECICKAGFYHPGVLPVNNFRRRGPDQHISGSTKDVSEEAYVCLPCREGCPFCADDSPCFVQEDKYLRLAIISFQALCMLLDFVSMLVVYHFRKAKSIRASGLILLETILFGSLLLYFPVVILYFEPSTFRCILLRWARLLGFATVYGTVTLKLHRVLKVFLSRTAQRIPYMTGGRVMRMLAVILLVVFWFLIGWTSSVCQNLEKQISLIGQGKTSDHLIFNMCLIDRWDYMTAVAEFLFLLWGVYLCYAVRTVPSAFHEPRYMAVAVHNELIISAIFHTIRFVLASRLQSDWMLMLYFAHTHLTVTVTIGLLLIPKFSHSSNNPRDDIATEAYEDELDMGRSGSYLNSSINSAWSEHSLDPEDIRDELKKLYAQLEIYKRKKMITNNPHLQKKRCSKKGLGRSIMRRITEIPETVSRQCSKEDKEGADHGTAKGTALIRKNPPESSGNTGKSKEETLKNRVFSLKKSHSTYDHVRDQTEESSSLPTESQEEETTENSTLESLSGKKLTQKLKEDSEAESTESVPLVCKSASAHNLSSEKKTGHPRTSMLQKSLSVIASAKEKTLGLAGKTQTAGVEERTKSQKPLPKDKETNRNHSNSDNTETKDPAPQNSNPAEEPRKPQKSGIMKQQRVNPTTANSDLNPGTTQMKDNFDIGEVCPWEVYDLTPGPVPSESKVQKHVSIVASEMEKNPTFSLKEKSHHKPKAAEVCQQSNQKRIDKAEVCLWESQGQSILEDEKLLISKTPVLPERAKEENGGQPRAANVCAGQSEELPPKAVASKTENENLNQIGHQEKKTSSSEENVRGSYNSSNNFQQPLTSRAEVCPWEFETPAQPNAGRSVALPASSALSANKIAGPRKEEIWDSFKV
T1 sequence (P49802 1-495 partner): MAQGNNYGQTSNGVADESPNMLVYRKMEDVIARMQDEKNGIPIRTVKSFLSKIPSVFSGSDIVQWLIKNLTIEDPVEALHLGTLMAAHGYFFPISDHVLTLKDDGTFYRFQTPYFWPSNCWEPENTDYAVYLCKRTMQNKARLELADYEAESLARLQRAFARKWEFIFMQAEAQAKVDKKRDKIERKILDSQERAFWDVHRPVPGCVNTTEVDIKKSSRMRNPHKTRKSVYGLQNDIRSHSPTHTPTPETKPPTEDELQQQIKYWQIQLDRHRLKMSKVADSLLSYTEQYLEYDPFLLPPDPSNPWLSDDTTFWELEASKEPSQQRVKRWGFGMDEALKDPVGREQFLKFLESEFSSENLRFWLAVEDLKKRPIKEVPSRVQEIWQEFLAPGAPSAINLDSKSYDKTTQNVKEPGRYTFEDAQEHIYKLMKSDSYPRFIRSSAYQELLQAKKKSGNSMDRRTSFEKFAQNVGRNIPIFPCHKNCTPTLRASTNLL
T1 sequence (O14775 1-395 partner): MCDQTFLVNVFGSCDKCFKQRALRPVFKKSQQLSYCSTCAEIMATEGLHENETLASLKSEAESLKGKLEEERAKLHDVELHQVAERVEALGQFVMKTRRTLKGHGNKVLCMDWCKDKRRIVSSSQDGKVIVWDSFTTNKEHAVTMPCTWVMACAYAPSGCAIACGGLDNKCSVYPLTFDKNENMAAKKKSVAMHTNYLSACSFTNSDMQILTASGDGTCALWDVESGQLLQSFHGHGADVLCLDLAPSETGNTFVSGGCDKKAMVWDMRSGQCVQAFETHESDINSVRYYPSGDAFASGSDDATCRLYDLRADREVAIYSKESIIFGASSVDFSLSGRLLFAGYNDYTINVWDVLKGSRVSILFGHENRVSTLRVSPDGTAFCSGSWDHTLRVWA
Test: cADDIS fluorescence-based cAMP assay, HEK293T/17 cells
Format: cell-based
Conditions: 500 μM Gly, 15 min, forskolin; GPR158-RGS7/Gβ5, HEK293T/17
Description: B. Effect of Gly on cAMP levels measured using CADDIS assay in HEK293T/17 cells (Gly conc. 500 μM). Binding of Gly to Cache domain of GPR158 blocks the GAP activity of GPR158-RGS7/Gβ5 complex on Gαo, resulting in lowering of CAMP levels. Data shown here represent the normalized fluorescence intensity upon Gly treatment (Mean±SEM from 3 independent experiments, Unpaired t-test, **p=0.0016)
In an effort to study the modulatory effects of Gly on CAMP through GPR158, the inventors took advantage of a fluorescence-based cAMP sensor cADDIS (Montana molecular) which involves Bacmam virus-based transduction of sensor into the cells (FIG. 17A).
Briefly, HEK293T/17 cells were co-transfected with plasmids for GPR158, RGS7 and Gβ5 (150 μg/ml, GPR158: RGS7: Gβ5:4:1:1) by electroporation (Maxcyte). […] Before Glycine treatment, baseline fluorescence intensity was recorded using a fluorescence intensity module (FI Ex: 485 nm, Em: 520 nm) in Pherastar FSX microplate reader (BMG Labtech) followed by forskolin treatment for 15 min. Subsequently, the cells were treated with 500 μM Gly and fluorescence intensity was recorded. […]
The cADDIS assay for Gαi results in increase in fluorescence when CAMP is decreasing in the cells after drug treatment.

cADDIS fluorescence change (cAMP decrease): significant increase in fluorescence
Structure (SMILES): NCC(=O)O [glycine]

From patent US20260376293A1, “METHODS FOR STUDYING GPR158 PHARMACOLOGY AND IDENTIFICATION OF ITS LIGANDS” (UNIVERSITY OF FLORIDA RESEARCH FOUNDATION, INCORPORATED, priority 2022, published 2026)
